Laboratory results as given in US8188078B2 (Sanofi-Aventis, priority 2007, dated 2012).

Tests used:
[1] = target: T1, c-MET (Homo sapiens, UniProt P08581); experiment: Test A: HTRF Met test in 96-well format; format: biochemical
T1 construct: The recombinant DNA His-Tev-MET (956-1390) in pFastBac(Invitrogen); His (N, cleaved yes); Tev (TEV protease site) (N, cleaved yes); made in house; host or cells: SF21 insect cells (baculovirus, pFastBac)
Procedure, shortened: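 The kinase was the Sf21-expressed MET cytoplasmic domain (956–1390), His tag removed, used at 5 nM with compound (0.17 nM–10 µM, 3% DMSO) in 10 mM MOPS pH 7.4. Poly-GAT 1 µg/ml, 10 µM ATP and 5 mM MgCl2 reacted 10 min at RT. After an EDTA stop, phosphotyrosine was detected by HTRF (665/620 ratio).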

[2] = test system: MKN45 cells; experiment: Test D: cellular proliferation by 14C-thymidine pulse, MKN45 cells; format: cell-based; details: cell line not stated (HCT116 or MKN45)
Procedure, shortened: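 MKN45 cells (7500/well, RPMI + 10% foetal calf serum) treated with 10 concentrations, 10000 to 0.3 nM in 3-fold steps, duplicate. 14C-thymidine (0.1 μCi/well) added at 72 h; incorporation counted after 24 h pulse, 96 h total treatment.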

[3] = Homo sapiens, MKN-45, cellular proliferation by 14C-thymidine pulse

T1 sequence (P08581 956-1390): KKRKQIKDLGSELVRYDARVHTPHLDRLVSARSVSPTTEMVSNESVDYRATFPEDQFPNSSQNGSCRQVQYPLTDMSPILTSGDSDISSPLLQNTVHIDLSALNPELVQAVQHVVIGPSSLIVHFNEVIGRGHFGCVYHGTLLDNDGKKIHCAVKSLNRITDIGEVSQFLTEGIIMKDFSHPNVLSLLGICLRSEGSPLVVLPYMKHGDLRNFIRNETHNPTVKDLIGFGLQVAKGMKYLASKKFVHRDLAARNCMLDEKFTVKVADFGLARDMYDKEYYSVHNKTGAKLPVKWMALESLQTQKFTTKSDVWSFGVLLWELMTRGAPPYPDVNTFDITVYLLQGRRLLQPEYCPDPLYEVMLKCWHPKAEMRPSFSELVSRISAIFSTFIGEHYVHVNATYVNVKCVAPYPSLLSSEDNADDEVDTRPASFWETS

Structure (SMILES) | IC50 [1] [nM] | IC50 [2, 3] [nM] | melting point [°C] | IC50 ([2]; cellular proliferation by 14C-thymidine pulse) [nM]
CC(Oc1cc2sc(NC(=O)NCCN3CCN(C)CC3)nc2cc1F)c1c(Cl)ccc(F)c1Cl (single isomer, unassigned) [Example 76, 1-{6-[(1R*)-1-(2,6-dichloro-3-fluorophenyl)ethoxy]-5-fluoro-1,3-benzothiazol-2-yl}-3-[2-(4-methylpiperazin-1-yl)ethyl]urea] | < 100 | < 500 |  | 
CC(Oc1cc2sc(NC(=O)NCCC3CCCN3C)nc2cc1F)c1c(Cl)ccc(F)c1Cl (stereo not drawn) [Example 79, 1-{6-[1-(2,6-dichloro-3-fluorophenyl)ethoxy]-5-fluoro-1,3-benzothiazol-2-yl}-3-[2-(1-methylpyrrolidin-2-yl)ethyl]urea] | < 100 | 500 to 10000 | 78 to 89 | 
CCN(CC)CCNC(=O)Nc1nc2ccc(OC(C)c3c(Cl)ccc(F)c3Cl)cc2s1 (stereo not drawn) [Example 82, 1-{6-[1-(2,6-dichloro-3-fluorophenyl)ethoxy]-1,3-benzothiazol-2-yl}-3-[2-(diethylamino)ethyl]urea] | < 100 | 500 to 10000 | 74 to 83 | 
CC(Oc1cc2sc(NC(=O)NCCN(C)C(=O)OC(C)(C)C)nc2cc1F)c1c(Cl)ccc(F)c1Cl (stereo not drawn) [Example 95] | < 100 | 500 to 10000 |  | 
CC(Oc1cc2[nH]c(NC(=O)NCCN3CCOCC3)nc2cc1F)c1c(Cl)ccc(F)c1Cl (stereo not drawn) [Example 6, 1-{6-[1-(2,6-dichloro-3-fluorophenyl)ethoxy]-5-fluoro-1H-benzimidazol-2-yl}-3-(2-morpholin-4-ylethyl)urea] | < 100 | 500 to 10000 | 190 to 192 | 
CC(Oc1cc2sc(NC(=O)NCCN3CCCC3)nc2cc1F)c1c(Cl)ccc(F)c1Cl (single isomer, unassigned) [Example 85, 1-{6-[(1R*)-1-(2,6-dichloro-3-fluorophenyl)ethoxy]-5-fluoro-1,3-benzothiazol-2-yl}-3-[2-(pyrrolidin-1-yl)ethyl]urea] | < 100 | < 500 |  | 
O=C(Nc1nc2ccc(OCc3c(Cl)cccc3Cl)cc2[nH]1)C1CC1 [Example 7, N-{6-[(2,6-dichlorobenzyl)oxy]-1H-benzimidazol-2-yl}cyclopropane carboxamide] | < 100 | < 500 | 133 to 135 | 
CC(Oc1cc2sc(NC(=O)NCCN3CCCC3)nc2cc1F)c1c(Cl)ccc(F)c1Cl (stereo not drawn) [Example 84, 1-{6-[1-(2,6-dichloro-3-fluorophenyl)ethoxy]-5-fluoro-1,3-benzothiazol-2-yl}-3-[2-(pyrrolidin-1-yl)ethyl]urea] | < 100 | < 500 | 178 to 190 | 
CC(Oc1cc2sc(NC(=O)NCCN3CCN(C)CC3)nc2cc1F)c1c(Cl)ccc(F)c1Cl (single isomer, unassigned) [Example 77, 1-{6-[(1S*)-1-(2,6-dichloro-3-fluorophenyl)ethoxy]-5-fluoro-1,3-benzothiazol-2-yl}-3-[2-(4-methylpiperazin-1-yl)ethyl]urea] | < 100 |  |  | 500 to 10000
CC(Oc1cc2sc(NC(=O)NCCN3CCN(C)CC3)nc2cc1F)c1c(Cl)ccc(F)c1Cl (stereo not drawn) [Example 75, 1-{6-[1-(2,6-dichloro-3-fluorophenyl)ethoxy]-5-fluoro-1,3-benzothiazol-2-yl}-3-[2-(4-methylpiperazin-1-yl)ethyl]urea] | < 100 | < 500 | 131 to 134 | 
CCN(CC)CCCNC(=O)Nc1nc2ccc(OC(C)c3c(Cl)ccc(F)c3Cl)cc2s1 (stereo not drawn) [Example 83, 1-{6-[1-(2,6-dichloro-3-fluorophenyl)ethoxy]-1,3-benzothiazol-2-yl}-3-[3-(diethylamino)propyl]urea] | < 100 | 500 to 10000 |  | 

The next lines start with the values.

IC50 [1] [nM] | IC50 [2, 3] [nM] | melting point [°C] | IC50 ([2]; cellular proliferation by 14C-thymidine pulse) [nM] | Structure (SMILES)
< 100 | 500 to 10000 | 170 |  | CC(Oc1cc2sc(NC(=O)NCCOCc3ccccc3)nc2cc1F)c1c(Cl)ccc(F)c1Cl (stereo not drawn) [Example 97, 1-[2-(benzyloxy)ethyl]-3-{6-[1-(2,6-dichloro-3-fluorophenyl)ethoxy]-5-fluoro-1,3-benzothiazol-2-yl}urea]
< 100 | 500 to 10000 | 198 |  | CC(Oc1cc2sc(NC(=O)NCCO)nc2cc1F)c1c(Cl)ccc(F)c1Cl (stereo not drawn) [Example 98, 1-{6-[1-(2,6-dichloro-3-fluorophenyl)ethoxy]-5-fluoro-1,3-benzothiazol-2-yl}-3-(2-hydroxyethyl)urea]
< 100 | 500 to 10000 | 176 to 179 |  | COCCNC(=O)Nc1nc2cc(F)c(OC(C)c3c(Cl)ccc(F)c3Cl)cc2s1 (stereo not drawn) [Example 81, 1-{6-[1-(2,6-dichloro-3-fluorophenyl)ethoxy]-5-fluoro-1,3-benzothiazol-2-yl}-3-(2-methoxyethyl)urea]
< 100 | 500 to 10000 | 191 to 195 |  | CC(Oc1cc2sc(NC(=O)NCCCN3CCCC3=O)nc2cc1F)c1c(Cl)ccc(F)c1Cl (stereo not drawn) [Example 78, 1-{6-[1-(2,6-dichloro-3-fluorophenyl)ethoxy]-5-fluoro-1,3-benzothiazol-2-yl}-3-[3-(2-oxopyrrolidin-1-yl)propyl]urea]
< 100 | 500 to 10000 | 173 to 188 |  | CNCCNC(=O)Nc1nc2cc(F)c(OC(C)c3c(Cl)ccc(F)c3Cl)cc2s1 (stereo not drawn) [Example 96, 1-{6-[1-(2,6-dichloro-3-fluorophenyl)ethoxy]-5-fluoro-1,3-benzothiazol-2-yl}-3-[2-(methylamino)ethyl]urea]
< 100 | 500 to 10000 | 178 |  | CC(Oc1cc2sc(NC(=O)NCCN)nc2cc1F)c1c(Cl)ccc(F)c1Cl (stereo not drawn) [Example 88, 1-(2-aminoethyl)-3-{6-[1-(2,6-dichloro-3-fluorophenyl)ethoxy]-5-fluoro-1,3-benzothiazol-2-yl}urea]
< 100 | 500 to 10000 | 142 to 146 |  | CC(Oc1cc2sc(NC(=O)NCCN(C)Cc3ccccc3)nc2cc1F)c1c(Cl)ccc(F)c1Cl (stereo not drawn) [Example 94, 1-{2-[benzyl(methyl)amino]ethyl}-3-{6-[1-(2,6-dichloro-3-fluorophenyl)ethoxy]-5-fluoro-1,3-benzothiazol-2-yl}urea]
< 100 | 500 to 10000 |  |  | CC(Oc1cc2sc(NC(=O)NCCN)nc2cc1F)c1c(Cl)ccc(F)c1Cl (single isomer, unassigned) [Example 89, 1-(2-aminoethyl)-3-{6-[(1R*)-1-(2,6-dichloro-3-fluorophenyl)ethoxy]-5-fluoro-1,3-benzothiazol-2-yl}urea]
